From a melting point compilation (Tetko et al.; mined from patent text by program, amines drawn as free bases though some values may be those of a salt)

Compound	melting point [°C]
Cc1cc(O)n2nc(CN=[N+]=[N-])nc2n1	193 to 194
CCCC(O)c1cc(C#N)ccc1OCc1ccc(Cl)cc1Cl (stereo not drawn)	120 to 121
CC(=O)c1cc2c(c(C)c1O)OC(C)(C)CC2C (stereo not drawn)	96 to 97
CCc1cccc(-c2nc3ccccc3[nH]2)n1	161 to 162
COc1cc(N)c(Cl)cc1C(=O)NCC1CCN(CCCCCCOc2ccccc2)CC1	113 to 115
CCCCNCc1nc(-c2ccc3c(c2)Nc2ccccc2S3)cs1	139 to 141
O=C1CCCCN1C1=CC(CF)(CF)Oc2ccc(C(F)(F)F)cc21	166 to 168
CCc1cc2c(NCCc3ccccc3)ccnc2s1	88
O=C1CCC(CCC(=O)OCc2cccc(Cl)c2)N1 (stereo not drawn)	90 to 91
COc1cc(NS(C)(=O)=O)ccc1-c1nc2cc3c(cc2[nH]1)NC(=O)C3(C)C	> 300
CCCC(=NOCC)C1=C(O)CC(c2c(C)c(C)c(C)c3cc(C(C)=O)oc23)CC1=O (stereo not drawn)	154
O=P(O)(O)C1(P(=O)(O)O)CCCN1	80
NC(=O)CNC(=O)c1ccc(-c2cccc3cc(Cc4cccc(C(F)(F)F)c4)sc23)nc1	191 to 192
CSc1ccc(C(C)C)c(NC(=O)CN2CCN(CCCSc3nc4ccccc4o3)CC2)c1C(C)C	126 to 127
O=CC1CCc2[nH]c3ccc(F)cc3c2C1 (stereo not drawn)	96 to 98
COc1ccc(CNC(=O)c2cc3c(=O)n(Cc4ccc([N+](=O)[O-])nc4)c(=O)n(C)c3s2)cc1	238 to 241
NS(=O)(=O)c1cc(C(=O)O)cc(SCc2ccccc2)c1Oc1ccccc1	235 to 236
CC=Cc1cnn(C)c1S(=O)(=O)NC(=O)Nc1nc(OC)cc(OC)n1	154 to 156
Cc1ccc2nc(N)nc(N)c2c1-c1cc(C(F)(F)F)cc(C(F)(F)F)c1	222 to 225
CN1C(=O)[C@H](NC(=O)CCc2ccc(Cl)cc2Cl)N=C(c2ccccc2)c2ccccc21	92 to 95
CC12CCC(C1)C1(C)Oc3ccc(C(=O)c4ccc(C(=O)O)cc4)cc3C21C (stereo not drawn)	262 to 264
CN1CC(CN2CC(=O)NC2=O)C=C2c3cccc4[nH]cc(c34)CC21 (stereo not drawn)	282 to 284
c1ccc(-c2nn3c(c2-c2nc4ncccc4[nH]2)CCC3)nc1	170 to 172
O=c1cc(CCO)c2cc(F)ccc2n1Cc1cc(Br)c(Br)c(Br)c1	135 to 140
CC1CC2C3CCC4=CC(=O)CCC4(C)C3(F)C(O)CC2(C)C1C(=O)CC#N (stereo not drawn)	224

Compound	melting point [°C]
Cc1cccc(-c2cn(C)cc(-c3cccc(Br)c3)c2=O)c1	144 to 147
NS(=O)(=O)c1ccc(/C(=C2\CCOC2=O)c2ccc(F)cc2)cc1	202
COc1cc2c(cc1Nc1ncc(Cl)c(N[C@H]3[C@@H](C(N)=O)[C@@H]4C=C[C@H]3C4)n1)CCN(CC(=O)N(C)C)CC2	109 to 127
CCCCCCC(=N)NC(=S)Nc1ccc(SC)cc1	100 to 101
CCCCCc1nc2ccccc2[nH]1	161 to 162
CN(C(N)=O)c1nc(Cl)nc(Cl)n1	172 to 174
Cc1nc(-n2cc(C(=O)NCc3ccccc3)nn2)sc1C(=O)NCc1ccccc1	178 to 180
CCOC(=O)c1cc2cc[nH]c2cc1N	> 250
O=C(O)C(=O)c1ccc(OCCCCc2cccnc2)cc1	163 to 165
Cn1cncc1C(O)(c1ccc(Cl)cc1)c1ccc2nc(C#Cc3ccccc3)cc(-c3cccc(Cl)c3)c2c1 (stereo not drawn)	154
COC(=O)C1=CNC=Cc2c1n(C)c1ccccc21	131 to 132
C#CCn1c(-c2ccc(Cl)nc2Cl)nc(OS(=O)(=O)C(F)(F)F)c(OC)c1=O	133 to 135
NC(=O)CNc1ncccc1NC(=O)c1cccc(Cl)c1	210 to 211
CCCOc1ccccc1OS(=O)(=O)NC(=O)Nc1nc(OC)cc(OC)n1	108 to 109
O=C(CC(=O)C(F)(F)F)c1ccc(-c2ccco2)cc1	157
N#Cc1cc(C(=O)c2ccccc2)ccc1O	185 to 186
CC(=O)NCc1ccc(Oc2ccccc2C(=O)CN2CCN(c3ccncc3)CC2)cc1	150 to 151
CCOC(=O)c1cnc2c(OCC)csc2c1O	223 to 224
Cc1cc(Oc2nn(C)c(C(F)(F)F)c2Cl)ccc1[N+](=O)[O-]	72 to 73.5
c1ccc2c(c1)ncc1nc(C3CCCCCC3)[nH]c12	225 to 226
N#Cc1cc([N+](=O)[O-])ccc1Oc1cc(Cl)c(Cl)c(Cl)c1	162 to 164
O=C1Nc2ccccc2C(=O)N2CCCC12 (stereo not drawn)	174
CC(C)c1ccc(S(=O)(=O)c2ccccc2)cc1S(=O)(=O)NC1CCN(C(=O)c2ccc(F)cc2)CC1	218 to 220
OCCCc1c[nH]c2ccc(-n3cnnc3)cc12	205 to 207
Fc1ccc2c(c1F)OCCN2	48 to 54

Compound	melting point [°C]
O=S1(=O)NCN(C2CC2)c2cc(Br)c(C(F)(F)F)cc21	186 to 189
Cc1oc(-c2ccccc2)nc1COc1cccc(COc2nn(Cc3ccccc3)cc2C=O)c1	131 to 132
COc1nc(C)nc(OC)c1C=S	136
Cc1ccccc1N1CCN(C(=O)c2ccc3n2Cc2ccccc2N(C(=O)c2ccc(C4CCCCC4)cc2)C3)CC1	141 to 143
Cc1ccc(C(=O)NCCN(C)C)cc1-n1c(C)cc(OCc2ccc(F)cc2CNC(=O)Nc2cc(C(C)(C)C)nn2-c2ccc(Cl)c(O)c2)c(Cl)c1=O	177 to 178
CCCCNc1cccc2c1C(=O)c1ccccc1C2=O	78 to 79
ON=Cc1ccc(OCc2coc(-c3ccc(C(F)(F)F)cc3)n2)cc1	155 to 160
Nc1ncnc(OCc2ccccc2)c1[N+](=O)[O-]	149 to 150
CC(C)[C@H](NC(=O)OCC1c2ccccc2-c2ccccc21)C(=O)N[C@@H](C)C(=O)O	122 to 123
CCC1(C)CC(O)C2(C)CCC3c4ccc(OC)cc4CCC3C12 (stereo not drawn)	133 to 136
O=C(NC1CCC1)c1cc([N+](=O)[O-])[nH]n1	240
O=C(O)CCCC(=O)NCC1(S)CCCCC1	73 to 74
CC(C)(C)OC(=O)NCCCCCN(OCc1ccccc1)C(=O)CCC(=O)O	93 to 94
CC(C)(Oc1ccc(CCN)cc1)C(=O)O	187 to 189
Cn1nnc2cccc(C=O)c21	126
O=C(O)c1ccc([N+](=O)[O-])cn1	210 to 211
O=C(O)CCN1C(=O)c2cccc([N+](=O)[O-])c2C1=O	146 to 148
Cc1nc(N)c(C#N)c(NCc2cncc(Br)c2)n1	283 to 284
CC(C)(C)C(NC(=O)c1ccc(Cl)cc1)NC(=NC#N)NCc1ccc(Cl)cc1 (stereo not drawn)	173 to 175
C[C@@H](n1cnc2cc(Oc3ccc(Cl)cc3)ccc2c1=O)[C@](O)(Cn1cncn1)c1ccc(F)cc1F	198 to 199
CCCCC1(Cn2ccnc2)SCCS1	131 to 135
COc1cc(C(=O)O)cc(OC)c1N(C)C	65 to 69
CC(=O)SCC12CCC3(CC1=CCC1C2CCC2(C)C(C(C)=O)CCC12)OCCO3 (stereo not drawn)	151 to 153
